Experimental data from the CheMixHub viscosity set.

Assay: xn = mol fraction of the nth substance listed

COCCOCCOCCO + O
101.33 kPa
Conditions | viscosity [mPa·s]
298.15 K, x1 = 0.0497 | 2.531
298.15 K, x1 = 0.0989 | 4.964
298.15 K, x1 = 0.1415 | 6.443
298.15 K, x1 = 0.2035 | 7.869
298.15 K, x1 = 0.3069 | 8.456
298.15 K, x1 = 0.4204 | 7.901
298.15 K, x1 = 0.5037 | 7.472
298.15 K, x1 = 0.6109 | 6.897
298.15 K, x1 = 0.7651 | 6.754
298.15 K, x1 = 0.84 | 6.754
298.15 K, x1 = 0.8917 | 6.594
308.15 K, x1 = 0.0226 | 1.317
308.15 K, x1 = 0.0554 | 2.514
308.15 K, x1 = 0.0964 | 3.669
308.15 K, x1 = 0.1278 | 4.537
308.15 K, x1 = 0.1726 | 5.437
308.15 K, x1 = 0.2157 | 5.977
308.15 K, x1 = 0.2434 | 6.176
308.15 K, x1 = 0.302 | 6.38
308.15 K, x1 = 0.3364 | 6.428
308.15 K, x1 = 0.3687 | 6.422
308.15 K, x1 = 0.3952 | 6.376
308.15 K, x1 = 0.42 | 6.331
308.15 K, x1 = 0.4712 | 6.215
308.15 K, x1 = 0.5057 | 6.123
308.15 K, x1 = 0.5471 | 6.022
308.15 K, x1 = 0.6208 | 5.83
308.15 K, x1 = 0.6681 | 5.716
308.15 K, x1 = 0.6996 | 5.651
308.15 K, x1 = 0.775 | 5.463
308.15 K, x1 = 0.8279 | 5.355
308.15 K, x1 = 0.8744 | 5.266
308.15 K, x1 = 0.9499 | 5.134
313.15 K, x1 = 0.0497 | 1.632
313.15 K, x1 = 0.0989 | 2.994
313.15 K, x1 = 0.1415 | 3.785
313.15 K, x1 = 0.2035 | 4.556
313.15 K, x1 = 0.3069 | 4.963
313.15 K, x1 = 0.4204 | 4.933
313.15 K, x1 = 0.5037 | 4.812
313.15 K, x1 = 0.6109 | 4.728
313.15 K, x1 = 0.7651 | 4.394
313.15 K, x1 = 0.84 | 4.295
313.15 K, x1 = 0.8917 | 4.236
323.15 K, x1 = 0.0497 | 1.3
323.15 K, x1 = 0.0989 | 2.266
323.15 K, x1 = 0.1415 | 2.812
323.15 K, x1 = 0.2035 | 3.375
323.15 K, x1 = 0.3069 | 3.689
323.15 K, x1 = 0.4204 | 3.709
323.15 K, x1 = 0.5037 | 3.647
323.15 K, x1 = 0.6109 | 3.566
323.15 K, x1 = 0.7651 | 3.428
323.15 K, x1 = 0.84 | 3.352
323.15 K, x1 = 0.8917 | 3.307

O=S(=O)([O-])[O-].O=S(=O)([O-])[O-].O=S(=O)([O-])[O-].[Fe+3].[Fe+3] + O
323.15 K, 101.3 kPa
Conditions | viscosity [mPa·s]
x1 = 0.0012 | 0.617
x1 = 0.0024 | 0.645
x1 = 0.00498 | 0.768
x1 = 0.00789 | 0.982
x1 = 0.0111 | 1.275

[Cl-].[NH4+] + O
viscosity [mPa·s]
Conditions | 298.15 K | 308.15 K | 313.15 K | 323.15 K
101.3 kPa, x1 = 0.00112 | – | 0.7299 | 0.6608 | 0.556
101.3 kPa, x1 = 0.002247 | – | 0.7289 | 0.6597 | 0.5555
101.3 kPa, x1 = 0.004484 | – | 0.7281 | 0.659 | 0.5551
101.3 kPa, x1 = 0.008927 | – | 0.7279 | 0.6586 | 0.5547
101.3 kPa, x1 = 0.0177 | – | 0.7315 | 0.661 | 0.557
101.33 kPa, x1 = 0.000905 | – | 0.7306 | 0.6614 | 0.5565
101.33 kPa, x1 = 0.002718 | – | 0.7295 | 0.6608 | 0.556
101.33 kPa, x1 = 0.00453 | – | 0.7288 | 0.6603 | 0.5556
101.33 kPa, x1 = 0.006344 | – | 0.7285 | 0.6598 | 0.5544
101.33 kPa, x1 = 0.008159 | – | 0.731 | 0.662 | 0.557
101.33 kPa, x1 = 0.1165 | 1.094 | – | – | –

CCNCC + O=C1CCCCC1
298.15 K, 101 kPa
Conditions | viscosity [mPa·s]
x2 = 0.076 | 0.296
x2 = 0.157 | 0.338
x2 = 0.2421 | 0.415
x2 = 0.3319 | 0.502
x2 = 0.427 | 0.639
x2 = 0.5278 | 0.79
x2 = 0.6349 | 0.97
x2 = 0.7488 | 1.224
x2 = 0.8702 | 1.54

CCC(O)CO (centres undefined) + O=C1CCCN1
101.33 kPa
Conditions | viscosity [mPa·s]
298.15 K, x2 = 0.0555 | 46.5
298.15 K, x2 = 0.09272 | 42.92
298.15 K, x2 = 0.2043 | 34.62
298.15 K, x2 = 0.2943 | 29.84
298.15 K, x2 = 0.4023 | 25.54
298.15 K, x2 = 0.508 | 22.41
298.15 K, x2 = 0.6045 | 20.25
298.15 K, x2 = 0.6902 | 18.59
298.15 K, x2 = 0.7968 | 16.74
298.15 K, x2 = 0.8891 | 15.2
298.15 K, x2 = 0.9416 | 14.65
308.15 K, x2 = 0.04722 | 26.34
308.15 K, x2 = 0.1008 | 23.83
308.15 K, x2 = 0.2171 | 19.71
308.15 K, x2 = 0.2992 | 17.63
308.15 K, x2 = 0.6065 | 12.84
308.15 K, x2 = 0.6909 | 11.99
308.15 K, x2 = 0.8019 | 10.94
308.15 K, x2 = 0.886 | 10.18
308.15 K, x2 = 0.9402 | 9.675
318.15 K, x2 = 0.04672 | 15.75
318.15 K, x2 = 0.07619 | 15.07
318.15 K, x2 = 0.2048 | 12.57
318.15 K, x2 = 0.289 | 11.39
318.15 K, x2 = 0.4043 | 10.2
318.15 K, x2 = 0.4992 | 9.411
318.15 K, x2 = 0.6031 | 8.699
318.15 K, x2 = 0.6923 | 8.26
318.15 K, x2 = 0.7988 | 7.666
318.15 K, x2 = 0.8817 | 7.237
318.15 K, x2 = 0.9477 | 6.892

COCCOCCOCCO + O=C1CCCN1
298.15 K, 101 kPa
Conditions | viscosity [mPa·s]
x1 = 0.0024 | 14.16
x1 = 0.0071 | 13.98
x1 = 0.0099 | 13.92
x1 = 0.0137 | 13.86
x1 = 0.026 | 13.66
x1 = 0.0397 | 13.43
x1 = 0.0605 | 13.11
x1 = 0.085 | 12.74
x1 = 0.1404 | 12.01
x1 = 0.1689 | 11.65
x1 = 0.2026 | 11.29
x1 = 0.24 | 10.92
x1 = 0.2913 | 10.46
x1 = 0.3429 | 10.04
x1 = 0.3916 | 9.679
x1 = 0.4401 | 9.334
x1 = 0.4897 | 9.091
x1 = 0.5674 | 8.598
x1 = 0.6133 | 8.347
x1 = 0.6641 | 8.188
x1 = 0.7172 | 7.889
x1 = 0.7708 | 7.642
x1 = 0.8177 | 7.419
x1 = 0.8659 | 7.145
x1 = 0.9053 | 6.89
x1 = 0.9402 | 6.677
x1 = 0.9788 | 6.466
x2 = 0.009 | 6.323
